One compound from article PMC3996874, “Esterase Active in Polar Organic Solvents from the Yeast Pseudozyma sp. NII 08165” (Enzyme Research, 2014) can be followed below.

The subject of this assay is T1, LIP1 esterase.
T1 construct: single band of 175 kDa on SDS-PAGE
Nature of the assay: pNP release at […] nm, Michaelis-Menten fit (GraphPad Prism). In kind it is biochemical, Pseudozyma sp. NII 08165. Conditions: pH 8, 60 °C; 0.05-0.7 mM pNPP.

By Km is commonly meant the substrate concentration at which the rate is half of its maximum. For the compound `CCCCCCCCCCCCCCCC(=O)Oc1ccc([N+](=O)[O-])cc1` [para-nitrophenyl palmitate], the Km turned out to be 10 µM.
